Data as given in patent US9464049B2, “Indole-carboxamides” (Hoffmann-La Roche Inc., priority 2013, dated 2016).

Assays:
[1] = tested on: human embryonic stem cell derived neural stem cells (NSCs); assay: Neural stem cell proliferation assay (neurogenesis assay, ATP levels by CellTiterGlo); type: cell-based; conditions: compound concentration at which 150% activity of control (100%) is reached, NSC proliferation by ATP (CellTiterGlo) after 4 days incubation, dose response 8 μM to 8 nM
Description: Neural Stem Cell Proliferation Assay
Neurogenic properties of small molecules are determined based on the proliferation of human embryonic stem cell derived neural stem cells (NSCs) which were derived via a dual smad inhibition as previously described (Chambers, S. M., et al., Highly efficient neural conversion of human ES and iPS cells by dual inhibition of SMAD signaling, Nature biotechnology, 2009. 27(3): p. 275-80.)
Compounds respond is measured by the increase in cells based on ATP levels (Promega:CellTiterGlo®) after an incubation period of 4 days.
NSCs are thawed and expanded over 3 passages. On the 14th day, NSCs are seeded in Polyornithin/Laminin coated 384 well plates at a cell density of 21,000 cells/cm^2 in a media volume of 38 μl.
4 hours after cell seeding, compound solutions are added at a volume of 2 μl. Stock solutions of the compounds (water, 5% DMSO) are diluted to obtain a dose response (11 points, dilution factor is 2), ranging from 8 μM to 8 nM. Controls are run to consistently determine the neurogenic properties of the cells: • Negative (neutral) control is cell culture Media (final DMSO concentration: 0.25%). • Positive controls are: • 1. cell culture Media+100 ng/ml FGF2 (final DMSO concentration: 0.1%) • 2. cell culture Media+20 ng/ml EGF (final DMSO concentration: 0.1%) • 3. cell culture Media+100 ng/ml Wnt3a (final DMSO concentration: 0.1%)
After 4 days incubation at 37° C., 5% CO2, the amount of ATP per well is quantified. The ATP concentration is proportional to the cell number. ATP is quantified by using the Promega CellTiterGlo® kit. The CellTiterGlo® reagents contain a cell lysis buffer, a thermo stable luciferase (UltraGlo™ recombinant luciferase), magnesium and luciferin. Luciferin reacts with ATP producing oxyluciferin, AMP and light. The luminescence signal is proportional to the ATP content.
The value of negative (neutral) control is determined for each assay plate by taking the average of 16 negative control wells. The neurogenic compound response is calculated for each compound as (compound/Negative Control)*100.
The values of EC150 from the dose response curve are determined for each test compound. The EC150 is the compound concentration at which 150% activity of control (100%) is reached.

[2] = Homo sapiens, Neural stem cell, 96 h

melting point	Molecule	EC (150% of control) [1, 2]	EC (150% of control) [1]
210 °C	Cc1c(C(N)=O)n(C)c2c(-c3ccc(Cl)cc3)cc(F)cc12 [Example 50, 7-(4-Chlorophenyl)-5-fluoro-1,3-dimethylindole-2-carboxamide]	0.12 µM	–
245 °C	Cc1c(C(N)=O)n(C)c2c(-c3ccc(C#N)cc3)cc(F)cc12 [Example 59, 7-(4-Cyanophenyl)-5-fluoro-1,3-dimethylindole-2-carboxamide]	0.083 µM	–
184 °C	Cc1c(C(N)=O)[nH]c2c(-c3ccc(C(F)(F)F)cc3)cc(Cl)cc12 [Example 16, 5-Chloro-3-methyl-7-[4-(trifluoromethyl)-phenyl]-1H-indole-2-carboxamide]	0.75 µM	–
289.5 °C	N#Cc1cc(-c2ccc(F)cc2F)c2[nH]c(C(N)=O)cc2c1 [Example 41, 5-Cyano-7-(2,4-difluorophenyl)-1H-indole-2-carboxamide]	0.025 µM	–
195 °C	Cc1c(C(N)=O)n(C)c2c(-c3ccc(C(F)(F)F)cc3)cc(C#N)cc12 [Example 6, 5-Cyano-1,3-dimethyl-7-[4-(trifluoromethyl)-phenyl]-indole-2-carboxamide]	2.7 µM	–
106 °C	Cc1c(C(N)=O)n(C)c2c(-c3ccc(OC(F)(F)F)cc3)cc(C#N)cc12 [Example 21, 5-Cyano-1,3-dimethyl-7-[4-(trifluoromethoxy)phenyl]indole-2-carboxamide]	0.43 µM	–
192 °C	Cc1ccc(-c2cc(F)cc3c(C)c(C(N)=O)[nH]c23)cc1 [Example 74, 5-Fluoro-3-methyl-7-(4-methylphenyl)-1H-indole-2-carboxamide]	0.17 µM	–
294 °C	Cc1c(C(N)=O)[nH]c2c(-c3ccc(C#N)cc3)cc(C#N)cc12 [Example 20, 5-Cyano-7-(4-cyanophenyl)-3-methyl-1H-indole-2-carboxamide]	0.24 µM	–
186 °C	Cc1c(C(N)=O)n(C)c2c(-c3ccc(F)c(F)c3)cc(F)cc12 [Example 52, 7-(3,4-Difluorophenyl)-5-fluoro-1,3-dimethylindole-2-carboxamide]	0.7 µM	–
217 °C	COc1ccc(-c2cc(F)cc3c(C)c(C(N)=O)[nH]c23)cc1 [Example 76, 5-Fluoro-7-(4-methoxyphenyl)-3-methyl-1H-indole-2-carboxamide]	0.009 µM	–
149 °C	Cc1c(C(N)=O)[nH]c2c(-c3ccc(OC(F)(F)F)cc3)cc(Cl)cc12 [Example 24, 5-Chloro-3-methyl-7-[4-(trifluoromethoxy)phenyl]-1H-indole-2-carboxamide]	1.32 µM	–
269 °C	N#Cc1cc(-c2ccc([N+](=O)[O-])cc2)c2[nH]c(C(N)=O)cc2c1 [Example 68, 5-Cyano-7-(4-nitrophenyl)-1H-indole-2-carboxamide]	0.071 µM	–
216 °C	Cc1c(C(N)=O)[nH]c2c(-c3ccc(Cl)cc3F)cc(F)cc12 [Example 77, 7-(4-Chloro-2-fluorophenyl)-5-fluoro-3-methyl-1H-indole-2-carboxamide]	0.022 µM	–
219 °C	Cc1c(C(N)=O)[nH]c2c(-c3ccc(F)cc3)cc(F)cc12 [Example 45, 5-Fluoro-7-(4-fluorophenyl)-3-methyl-1H-indole-2-carboxamide]	0.068 µM	–
195 °C	Cc1c(C(N)=O)n(C)c2c(-c3ccc(Cl)cc3)cc(Cl)cc12 [Example 14, 5-Chloro-7-(4-chlorophenyl)-1,3-dimethylindole-2-carboxamide]	0.84 µM	–
162 °C	NC(=O)c1cc2cc(F)cc(-c3ccc(F)cc3)c2[nH]1 [Example 3, 5-Fluoro-7-(4-fluoro-phenyl)-1H-indole-2-carboxamide]	0.18 µM	–
267.5 °C	N#Cc1cc(-c2ccc(Cl)cc2)c2[nH]c(C(N)=O)cc2c1 [Example 35, 7-(4-Chlorophenyl)-5-cyano-1H-indole-2-carboxamide]	0.021 µM	–

melting point	Molecule	EC (150% of control) [1, 2]	EC (150% of control) [1]
222.5 °C	Cn1c(C(N)=O)cc2cc(C#N)cc(-c3ccc(Cl)cc3Cl)c21 [Example 63, 5-Cyano-7-(2,4-dichlorophenyl)-1-methylindole-2-carboxamide]	0.21 µM	–
277.5 °C	N#Cc1cc(-c2ccc(C(F)(F)F)cc2)c2[nH]c(C(N)=O)cc2c1 [Example 36, 5-Cyano-7-[4-(trifluoromethyl)phenyl]-1H-indole-2-carboxamide]	0.1 µM	–
226 °C	Cc1c(C(N)=O)n(C)c2c(-c3ccc(C#N)cc3)cc(C#N)cc12 [Example 22, 5-Cyano-7-(4-cyanophenyl)-1,3-dimethylindole-2-carboxamide]	0.6 µM	–
196 °C	Cc1c(C(N)=O)[nH]c2c(-c3ccc(F)cc3F)cc(Cl)cc12 [Example 25, 5-Chloro-7-(2,4-difluorophenyl)-3-methyl-1H-indole-2-carboxamide]	0.21 µM	–
203.5 °C	Cn1c(C(N)=O)cc2cc(C#N)cc(-c3ccc(F)cc3)c21 [Example 38, 5-Cyano-7-(4-fluorophenyl)-1-methylindole-2-carboxamide]	0.19 µM	–
108 °C	Cc1c(C(N)=O)[nH]c2c(-c3ccc(OC(F)(F)F)cc3)cc(F)cc12 [Example 54, 5-Fluoro-3-methyl-7-[4-(trifluoromethoxy)phenyl]-1H-indole-2-carboxamide]	0.2 µM	–
222 °C	Cc1c(C(N)=O)[nH]c2c(-c3ccc(F)c(F)c3)cc(C#N)cc12 [Example 7, 5-Cyano-7-(3,4-difluorophenyl)-3-methyl-1H-indole-2-carboxamide]	0.3 µM	–
212 °C	Cc1c(C(N)=O)n(C)c2c(-c3ccc(F)c(F)c3)cc(C#N)cc12 [Example 5, 5-Cyano-7-(3,4-difluorophenyl)-1,3-dimethylindole-2-carboxamide]	0.35 µM	–
216 °C	Cc1c(C(N)=O)n(C)c2c(-c3ccc(F)cc3)cc(C#N)cc12 [Example 4, 5-Cyano-7-(4-fluorophenyl)-1,3-dimethylindole-2-carboxamide]	0.21 µM	–
195 °C	Cc1c(C(N)=O)[nH]c2c(-c3ccc(Cl)cc3Cl)cc(Cl)cc12 [Example 26, 5-Chloro-7-(2,4-dichlorophenyl)-3-methyl-1H-indole-2-carboxamide]	0.33 µM	–
297 °C	N#Cc1cc(-c2ccnc(Cl)c2)c2[nH]c(C(N)=O)cc2c1 [Example 70, 7-(2-Chloropyridin-4-yl)-5-cyano-1H-indole-2-carboxamide]	0.14 µM	–
276.5 °C	N#Cc1cc(-c2ccc(Cl)cc2Cl)c2[nH]c(C(N)=O)cc2c1 [Example 42, 5-Cyano-7-(2,4-dichlorophenyl)-1H-indole-2-carboxamide]	0.047 µM	–
–	5-Cyano-7-3,4-difluorophenyl)-1H-indole-2-carboxamide [Example 33]	–	0.056 µM
252 °C	Cc1c(C(N)=O)[nH]c2c(-c3ccc(Cl)cc3)cc(Cl)cc12 [Example 12, 5-Chloro-7-(4-chlorophenyl)-3-methyl-1H-indole-2-carboxamide]	0.31 µM	–
230 °C	Cc1c(C(N)=O)[nH]c2c(-c3ccc(Cl)cc3)cc(F)cc12 [Example 46, 7-(4-Chlorophenyl)-5-fluoro-3-methyl-1H-indole-2-carboxamide]	0.066 µM	–
221 °C	Cc1c(C(N)=O)n(C)c2c(-c3ccc(Cl)cc3Cl)cc(Cl)cc12 [Example 30, 5-Chloro-7-(2,4-dichlorophenyl)-1,3-dimethylindole-2-carboxamide]	0.93 µM	–
206.5 °C	COc1ccc(-c2cc(C#N)cc3cc(C(N)=O)n(C)c23)cc1 [Example 71, 5-Cyano-7-(4-methoxyphenyl)-1-methylindole-2-carboxamide]	0.21 µM	–
